Data published in US5932554A (priority 1997, dated 1999).

Target: cholera toxin (Vibrio cholerae serotype O1, UniProt P01556)
Test: biochemical
Assay type: binding, V. cholerae

cholera toxin, sequence (P01556 22-124 limits assumed): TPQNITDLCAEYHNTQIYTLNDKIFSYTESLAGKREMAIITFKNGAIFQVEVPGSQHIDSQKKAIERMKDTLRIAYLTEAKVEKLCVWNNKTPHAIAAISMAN

OC[C@H]1OC(O)[C@H](O)[C@@H](O)[C@H]1O (stereo partly drawn) [D-galactose]
IC50: 30 mM
